Columns and labels:
[1] = AUC (0 to t) in Wistar Han rat at 3 mg/kg, iv or 10 mg/kg, po; assay type: ADME, organism-based; conditions: in vivo
[2] = Clearance in Wistar Han rat at 3 mg/kg, iv; assay type: ADME, organism-based; conditions: in vivo
[3] = Half life in Wistar Han rat at 3 mg/kg, iv; assay type: ADME, organism-based; conditions: in vivo
[4] = Volume of distribution at steady state in Wistar Han rat at 3 mg/kg, iv or 10 mg/kg, po; assay type: ADME, organism-based; conditions: in vivo, read-out: Vdss
[5] = Oral bioavailability in Wistar Han rat at 10 mg/kg; assay type: ADME, organism-based; conditions: in vivo
[6] = Cmax in Wistar Han rat at 3 mg/kg, iv or 10 mg/kg, po; assay type: ADME, organism-based; conditions: in vivo
[7] = Lipophilicity, log D of the compound; assay type: physicochemical; conditions: octanol/water

AUC(0-t) [1] [µM·h]	clearance [2] [mL/min/kg]	half-life [3] [h]	Vd [4] [L/kg]	bioavailability [5] [%]	Cmax [6] [nM]	logD [7]	SMILES
5.5	56	1	1.8	80	2900		CC(C)Nc1ccc2ccn(-c3cncc(-c4ccc(C(=O)O)cc4)n3)c2c1
5.5	19	7.1	1	24	830	1.06	CC(C)Nc1ccc2cnn(-c3cncc(-c4ccc(C(=O)O)cc4)n3)c2c1
